# Test results published in patent publication US5629298A, “Adenosine as a positive inotrop in the compromised heart” (University of Massachusetts Medical Center, priority 1995, dated 1997).
# Where two headings read alike, the source gives them in different places.
# Key:
# [1] = system: ventricular myocyte membrane adenylyl cyclase; experiment: Adenylyl cyclase activity of ventricular myocyte membranes; assay type: biochemical, rat
# Experimental: After a 3-4 hour incubation period, myocytes were harvested by placing the culture dishes on ice; aspirating and discarding the culture medium; scraping the attached cells into 1 ml of ice cold buffer (pH 7.4) containing 10 mM HEPES and 1 mM dithiothreitol (DTT); and transferring the mixture to a 40 ml centrifuge tube. The culture dishes were rinsed twice with buffer, and the rinses were added to the centrifuge tube. The myocytes were centrifuged at 45,000 x g for 45 minutes and the supernatant was discarded. The pellet was resuspended in 40 mM HEPES (pH 7.4) to yield 3.5-4 mg protein/ml and homogenized with a small clearance Dounce tissue grinder (8 strokes). The membranes were centrifugated as described above, resuspended (3-4 mg protein/ml) in 40 mM HEPES (pH 7.4), and assayed for adenylyl cyclase activity immediately or stored at -80° C. and assayed within 10 days.
# The assay system used to measure adenylyl cyclase activity minimizes the formation of endogenous adenosine. The assay used was essentially as described by Romano et al. (supra). Myocyte membranes (15-25 μg protein) were incubated in 50 μl of a buffer containing 40 mM HEPES (pH 7.4), 5 mM MgCl2, 1 mM DTT, 5.5 mM KCl, 0.1 mM 2'-deoxy-cAMP (dcAMP), 0.1 mM 2'-deoxy ATP (dATP), 20 mM phosphoenolpyruvate, 2 units pyruvate kinase, 0.25 units adenosine deaminase, 1 mM ascorbic acid, 100 mM NaCl, 0.1 mM ethyleneglycol-bis (β-aminoethylether) N,N,N',N',-tetroaceticacid (EGTA), 10 μM guanosine 5'-triphosphate (GTP), and ~2×10^6 counts/minutes of [α-^32 P]dATP for 20 minutes at 30° C. The reaction was stopped by adding 40 μl of a solution containing 2% sodium dodecyl sulfate (SDS), 45 mM ATP, 1.3 mM cAMP, and [^3 H]dcAMP (~4000 count/min) and by boiling for 2 minutes.
# rat ventricular myocytes = experiment: Contractile function of individual ventricular myocytes (line scan camera edge detection, paced at 0.5 Hz); assay type: cell-based; conditions: for +dL/dtmax, maximal rate of shortening / -dL/dtmax, maximal rate of relaxation / DS, duration of shortening / LC, maximum length change (shortening) with contraction / TPS, time-to-peak shortening / TR, time to 75% relaxation: mean ± SE, N = 6; for inhibition at 2 µM: Rattus norvegicus, Ventricular myocyte, PIA at 2 μM
# Experimental: Primary cultures of adult rat ventricular myocytes were prepared essentially according to previously described methods (Romano et al., Am. J. Physiol. 257:H1088 (1989)). Two male Sprague-Dawley rats (Charles River, Wilmington, Mass. or Harlan, Indianapolis, Ind.) were decapitated, and the hearts were rapidly excised and constant pressure (70 cm H2) and nonrecirculated) perfused for 10 minutes through the aortas with filtered (0.45 μm membrane filter) perfusing solution (NaCl, 118 mM; glucose, 10 mM; NaHCO3 25 mM; KCl, 4.69 mM; MgSO4 1.18 mM; and KH2 PO4, 1.18 mM; (pH 7.4)), to which […] was added, at 37° C. After equilibration, the hearts were constant pressure perfused with fresh physiological saline ("PS") containing no added Ca^2+ until spontaneous contractions ceased (i.e., ~30 seconds). The hearts were then perfused for 4-10 minutes in a nonrecirculating manner with PS containing 0.73 mg/ml collagenase, 0.16 mg/ml hyaluronidase, 1 mg/ml recrystallized bovine serum albumin ("BSA") and 48.4 μM Ca^2+ at a rate of 3-4 ml/min/heart. Ventricles, free of atria, were removed from the perfusion system, cut into 8 pieces and placed in a 50 ml Erlenmeyer flask with 5 ml of PS containing 0.73 mg/ml collagenase, 0.16 mg/ml hyaluronidase, 2.5 mg/ml BSA, and 50 μM Ca^2+ (incubation solution). The flask was gently shaken (40 cycles/min) in a reciprocating water bath with continuous gassing (95% O2, 5% CO2) for 7 minutes at 37° C. The incubation solution was aspirated and this shaking procedure was repeated with fresh incubation solution 3-5 times depending on the likelihood that the tissue was ready to dissociate. After the final incubation period, the solution was aspirated and replaced with 10 ml of fresh incubation solution. The flask was then shaken rapidly (120 cycles/min) for 10 minutes with gassing to dissociate the myocytes. The flask contents were filtered through a 250 μm nylon mesh into a 50 ml polypropylene centrifuge tube, to which 40 ml of PS containing 5.95 mg/ml BSA and 99.7 μm Ca^2+ (wash solution) was gradually added.
# The myocytes were allowed to settle for 15 minutes, and the upper two thirds of the wash solution was aspirated. Upon the addition of 30-35 ml of wash solution, this settling step was repeated. The wash solution was aspirated and the myocyte pellet was resuspended in 10 ml of minimum essential medium ("MEM"). The myocyte suspension was allowed to settle for 5 minutes and then brought to a final volume of 22 ml with MEM. Two milliliters of the myocyte suspension was seeded onto each of 60 mm culture dishes containing 2 ml of MEM.
# The contractile function of individual myocytes was assessed by dispersing 50-100 cells in a 506 μl myocyte chamber (11×23×2 mm deep). The chamber (FIG. 1) was continuously suffused (850 μl/min) with fresh suffusion solution ("SS") in mM: 136.4 NaCl, 4.7 KCl, 1.0 CaCl2, 10 hydroxyethylpiperzine-ethanesulfonicacid (HEPES), 1.0 NaHCO3, 1.2 MgSO4, 1.2 KH2 PO4, 10 glucose, 0.6 ascorbate, 1.0 pyruvate) at 20° C. The chamber was mounted on an inverted microscope stage and contained platinum wire electrodes for initiating myocyte contraction at 0.5 Hz (voltage 10% above threshold for 5 msec duration).
# The image of the myocyte was projected via an inverted microscope at 300× onto a line scan camera (Fairchild, Model 1600R) containing a linear array (1×3456) of photodiodes. When aligned with the longitudinal axis of the cell the camera detected the movement of the 2 ends of the myocyte upon contraction (shortening and relengthening). […] When the myocyte was transilluminated, both ends of the cell were easily discriminated. Myocyte length and length change with respect to time for a single contraction was measured by determining the pixels in which the appropriate transitions between light and dark occurred. The line scan camera was calibrated with a stage micrometer scaled in 10 μm divisions. The signals from the camera were directed to a Hewlett Packard computer (Model Vectra RS/20C). […]
# rat heart = experiment: Isolated perfused heart, normoperfused or hypoperfused (mechanically depressed): LVP, +dP/dtmax, -dP/dtmax; conditions: atenolol; hypoperfusion
# Experimental: Male Sprague-Dawley rats (500-550 g) were anesthetized with pentobarbital (40 mg/kg, i.p.) and treated with heparin (500 units, i.p.) for 15 minutes. Hearts were excised, rinsed in iced physiological saline ("PS") and perfused with PS (37° C.) via an aortic cannula at a constant rate of 18-20 ml/min. Perfusion pressure ranged from 50 to 60 mm Hg. The PS contained: NaCl, 118 mM; KCl, 4.7 mM; CaCl2, 2.5 mM; NaHCO3, 25 mM; KH2 PO4, 1.2 mM; MgSO4 1.2 mM; glucose 10 mM; and pyruvate 1.8 mM. The pH was maintained at 7.4 by gassing the PS with a 95% O2 /5% CO2 gas mixture. Platinum wire electrodes were inserted into the right atrium to allow pacing of the heart (300 contractions per minute) throughout the perfusion period. Developed left ventricular pressure (LVP) was measured with a saline-filled balloon inserted into the lumen of the left ventricle via the left atrium and attached by a polyethylene cannula to a pressure transducer. The pressure signal was electronically differentiated to obtain the maximum rates of left ventricular pressure development (+dP/dtmax) and relaxation (-dP/dtmax). Balloon volume was varied until the maximal obtainable dP/dt was attained. This optimal preload, ranging from 5 to 10 mm Hg, was maintained constant, permitting isovolumic contraction of the heart. Aortic perfusion pressure was monitored with another pressure transducer. All the LVP, +dP/dtmax, -dP/dtmax and aortic perfusion data were continually recorded on a multichannel polygraph. At the end of the experiment, the wet heart weights were determined; they ranged from 1.4 to 1.8 g.
# After instrumentation, the hearts were normoperfused at 18-20 ml/min for 20 minutes, resulting in an aortic perfusion pressure of 50-60 mm Hg. Isoproterenol, adenosine, CGS-21680, DPCPX, atenolol, or a combination of these agents was administered for 1 to 2 minutes, via the aortic perfusion cannula, at 1/100th the perfusion flow rate, to achieve the stated PS concentrations. Isoproterenol was administered for only 5 seconds. To cause mechanical depression of the perfused hearts, the perfusion flow was lowered 5-6 ml/min. The resulting aortic perfusion pressure decreased to 20-30 mm Hg. The various agents either alone or in combination were administered via the PS to the hypoperfused hearts at 1/100th the perfusion flow rate, at the concentrations indicated.
# [2] = Table 5, CGS-21680 and/or CGS-15943 at 10^-5 M, 10 min
# [3] = Table 3, 1 μM PIA, 0.1 μM ISO, 0.1 μM DPCPX added sequentially every 8-10 min, maximum responses
# [4] = Table 6, 10^-5 M SHA-082, 10^-5 M NECA, 10^-4 M adenosine, 2 × 10^-7 M DPCPX, 10^-5 M CGS-15943
# [5] = addition of 0.1 μM DPCPX to 1 μM PIA + 0.1 μM ISO
smiles,measurement,setting,value
"N=c1[nH]c2ccc(Cl)cc2c2nc(-c3ccco3)nn12 [CGS-15943, 9-chloro-2-(2-furanyl)-5,6-dihydro-1,2,4-triazolo-(1,5-C)quinazolin-5-imine]",effect on the CGS-21680 increase in cyclase activity,"[1]; 10 μM CGS-15943, 0.1 μM DPCPX present",prevented
same,effect on the NECA increase in membrane cyclase activity,"[1]; CGS-15943 at 10 μM, both in the absence and presence of DPCPX",prevented
same,effect on the adenosine induced increases in contractile variables,"rat ventricular myocytes; 10 μM CGS-15943, 100 μM adenosine + 0.2 μM DPCPX",inhibited
same,effect on the increase in myocyte contractility produced by CGS-21680,"rat ventricular myocytes; CGS-15943 (10 μm), CGS-21680 (10 μm)",prevented
same,"+dL/dtmax, maximal rate of shortening",rat ventricular myocytes; [2],146 ± 10 μm/msec
same,"-dL/dtmax, maximal rate of relaxation",rat ventricular myocytes; [2],123 ± 11 μm/msec
same,"DS, duration of shortening",rat ventricular myocytes; [2],331 ± 15 ms
same,"LC, maximum length change (shortening) with contraction",rat ventricular myocytes; [2],18 ± 2 μm
same,"TPS, time-to-peak shortening",rat ventricular myocytes; [2],122 ± 3 ms
same,"TR, time to 75% relaxation",rat ventricular myocytes; [2],285 ± 10 ms
"CC(Cc1ccccc1)Nc1ncnc2c1ncn2[C@@H]1O[C@H](CO)[C@@H](O)[C@H]1O (some centres unmarked) [PIA, phenylisopropyladenosine]",effect on ventricular myocyte contractile variables,rat ventricular myocytes; PIA at 1 μM alone,no effect
same,inhibition at 2 µM,"rat ventricular myocytes; ISO 0.2 μM, read-out: reduction of the ISO-induced decrease in DS",47%
same,inhibition at 2 µM,"rat ventricular myocytes; ISO 0.2 μM, read-out: reduction of the ISO-induced decrease in TPS",82%
same,inhibition at 2 µM,"rat ventricular myocytes; ISO 0.2 μM, read-out: reduction of the ISO-induced decrease in TR",37%
same,inhibition at 2 µM,"rat ventricular myocytes; ISO 0.2 μM, read-out: reduction of the ISO-induced increase in +dL/dtmax",60%
same,inhibition at 2 µM,"rat ventricular myocytes; ISO 0.2 μM, read-out: reduction of the ISO-induced increase in -dL/dtmax",78%
same,inhibition at 2 µM,"rat ventricular myocytes; ISO 0.2 μM, read-out: reduction of the ISO-induced increase in LC",91%
same,"+dL/dtmax, maximal rate of shortening",rat ventricular myocytes; [3],115 ± 17 μm/msec
same,"-dL/dtmax, maximal rate of relaxation",rat ventricular myocytes; [3],85 ± 21 μm/msec
same,"DS, duration of shortening",rat ventricular myocytes; [3],374 ± 23 ms
same,"LC, maximum length change (shortening) with contraction",rat ventricular myocytes; [3],16 ± 2 μm
same,"TPS, time-to-peak shortening",rat ventricular myocytes; [3],153 ± 5 ms
same,"TR, time to 75% relaxation",rat ventricular myocytes; [3],308 ± 8 ms
"Cn1c(=O)c2c(nc(C=Cc3cccc(Cl)c3)n2C)n(C)c1=O [CSC, 8-(3-chlorostyryl)caffeine]",effect on the increase in the contractile variables elicited by 1 μM CGS-21680,"rat ventricular myocytes; CSC at 1 μM, in the presence of 0.2 μM DPCPX",prevented
"CCCn1c(=O)c2[nH]c(C3CCCC3)nc2n(CCC)c1=O [DPCPX, 1,3-dipropyl-8-cyclopentylxanthine]",effect on the PIA inhibition of ISO stimulated adenylyl cyclase activity,[1]; DPCPX at 0.1 μM,prevented
same,effect on myocyte contractility when administered alone,rat ventricular myocytes; 100 μM adenosine or 0.2 μM DPCPX,without effect
same,effect on the PIA reduction of the ISO induced contractile responses,"rat ventricular myocytes; DPCPX at 0.2 μM, ISO 0.2 μM, PIA 2 μM",reversed
same,"+dL/dtmax, maximal rate of shortening",rat ventricular myocytes; [4],179 ± 9 μm/msec
same,"-dL/dtmax, maximal rate of relaxation",rat ventricular myocytes; [4],147 ± 11 μm/msec
same,"DS, duration of shortening",rat ventricular myocytes; [4],279 ± 15 ms
same,"LC, maximum length change (shortening) with contraction",rat ventricular myocytes; [4],17 ± 1 μm
same,"TPS, time-to-peak shortening",rat ventricular myocytes; [4],116 ± 3 ms
same,"TR, time to 75% relaxation",rat ventricular myocytes; [4],264 ± 11 ms
same,further increase of the ISO induced enhancement in +dL/dtmax,rat ventricular myocytes; [5],40%
same,further increase of the ISO induced enhancement in LC,rat ventricular myocytes; [5],26%
same,lowering of DS below that observed in the presence of PIA+ISO,rat ventricular myocytes; [5],27%
CC(C)NCC(O)COc1ccc(CC(N)=O)cc1 (centres unmarked) [atenolol],effect on the inotropic responses induced by adenosine or adenosine plus DPCPX,rat heart,did not affect
same,effect on the isoproterenol elicited contractile responses,rat heart,completely prevented
